In US12414955B2 (priority 2020, dated 2025):
“And” between values parts separate entries of the source, which are not always exact repeats. Equal values may be shown once.

What was measured:
SARS CoV-1 = assay: organism not typed; assay type: cell-based, Toronto 2 SARS CoV-1; details: for average plate ZIP synergy score / maximum ZIP synergy score / concentrations at which synergy was realized: SARS CoV-1 CPE assay
SARS-CoV-2 = assay: microbe, parasite or virus in culture; assay type: cell-based; details: Severe acute respiratory syndrome coronavirus 2, A549, 48 h; read-out: IC50 for inhibition of SARS CoV-2 mediated cell killing
in vitro [1] = details: African green monkey
SARS CoV-2 = SARS CoV-2 cytopathic effect (CPE) assay in Vero E6 host cells; assay type: cell-based, USA_WA1/2020 SARS CoV-2
in vitro [2] = details: African green monkey; remark: listed apart in the source
[3] = Compound 1 in combination with hydroxychloroquine (HCQ)
[4] = Compound 1 in combination with remdesivir
[5] = combination of Compound 1 and hydroxychloroquine (HCQ)
[6] = combination of Compound 1 and remdesivir

Row | SMILES | IC50 (SARS-CoV-2) [µM] | CC50 (in vitro [1]) [µM] | CC50 (in vitro [2]) [µM] | other results
1 | C[C@@H]1COCCN1c1cc(N2CCCC[C@@H]2C(F)(F)F)[nH]c(=O)c1 [Compound 1] | 0.108 | > 30 | > 30 | average plate ZIP synergy score (SARS CoV-1; [3]): 13.413; maximum ZIP synergy score (SARS CoV-1; [3]): 37.77; average plate ZIP synergy score (SARS CoV-1; [4]): 8.304; maximum ZIP synergy score (SARS CoV-1; [4]): 33.66; IC50 (SARS CoV-1; Vero C1008, 72 h, read-out: IC50 for inhibition of SARS CoV-1 mediated cell killing): 0.65 µM; concentrations at which synergy was realized (SARS CoV-1; [5]): ≤ 1.9 µM; concentrations at which synergy was realized (SARS CoV-1; [6]): ≤ 1.9 µM; average plate ZIP synergy score (SARS CoV-2): 5.523 and 8.345; maximum ZIP synergy score (SARS CoV-2): 32.8 and 40.8
2 | C[C@@H]1COCCN1c1cc(N2CCCC[C@@H]2c2ccccc2)[nH]c(=O)c1 [Compound 2] | 2.03 | > 30 | > 30 | –
3 | C[C@@H]1COCCN1c1cc(N2CCC[C@@H]2C(F)(F)F)[nH]c(=O)c1 [Compound 3] | > 30 | > 30 | > 30 | –
4 | C[C@@H]1COCCN1c1cc(N2CCOC[C@H]2C(F)(F)F)[nH]c(=O)c1 [Compound 4] | 0.52 | > 30 | > 30 | –
5 | C[C@@H]1COCCN1c1cc(N2CCOCC23CCC3)[nH]c(=O)c1 [Compound 5] | 7.73 | > 10 | > 10 | –
6 | CCN(CCO)CCCC(C)Nc1ccnc2cc(Cl)ccc12 (stereo not drawn) [HCQ, hydroxychloroquine, reference compound] | – | – | – | concentrations at which synergy was realized (SARS CoV-1; [5]): > 0.1 µM
7 | CCC(CC)COC(=O)[C@H](C)N[P@](=O)(OC[C@H]1O[C@@](C#N)(c2ccc3c(N)ncnn23)[C@H](O)[C@@H]1O)Oc1ccccc1 [Remdesivir, remdesivir, reference compound] | – | – | – | concentrations at which synergy was realized (SARS CoV-1; [6]): > 1.9 µM; concentrations at which synergy was realized (SARS CoV-2): above 0.5 μM
